Assay results from ChEMBL document CHEMBL1149955, “The discovery and synthesis of 2-biphenylcarbapenems active against methicillin resistant staphylococci” (1995).
In brackets after ≈: the same amount, converted by molar mass.

Columns and labels:
Format in all cases: functional
Staphylococcus sp. [1] = experiment: Compound was evaluated for anti-methicillin-resistant activity against methicillin-resistant coagulase-negative Staphylococci CL 171
Staphylococcus sp. [2] = experiment: Compound was evaluated for anti-methicillin-resistant activity against methicillin-resistant coagulase-negative Staphylococci
Staphylococcus aureus [3] = experiment: Compound was evaluated for anti-methicillin-resistant activity against methicillin-resistant Staphylococcus aureus
Staphylococcus sp. [4] = experiment: Compound was evaluated for anti-methicillin-resistant activity against methicillin-resistant coagulase-negative Staphylococci CL 546
Staphylococcus sp. [5] = experiment: Compound was evaluated for anti-methicillin-resistant activity against methicillin-resistant coagulase-negative Staphylococci CL 202
Staphylococcus sp. [6] = experiment: Compound was evaluated for anti-methicillin-resistant activity against methicillin-resistant coagulase-negative Staphylococci CL 227
Staphylococcus aureus [7] = experiment: Antibacterial activity against Methicillin-sensitive Staphylococcus aureus (4)
Staphylococcus aureus [8] = experiment: Compound was evaluated for anti-methicillin-resistant activity against methicillin-resistant Staphylococcus aureus CL 1991
Staphylococcus aureus [9] = experiment: Compound was evaluated for anti-methicillin-resistant activity against methicillin-resistant Staphylococcus aureus CL 714
Staphylococcus aureus [10] = experiment: Compound was evaluated for anti-methicillin-resistant activity against methicillin-resistant Staphylococcus aureus CL 792
Serratia [11] = experiment: Antibacterial activity against Serratia species. (2)
Proteus [12] = experiment: Antibacterial activity against Proteus species. (5)
Staphylococcus aureus [13] = experiment: Compound was evaluated for anti-methicillin-resistant activity against methicillin-resistant Staphylococcus aureus CL 3043
Staphylococcus aureus [14] = experiment: Compound was evaluated for anti-methicillin-resistant activity against methicillin-resistant Staphylococcus aureus CL 1985
Staphylococcus aureus [15] = experiment: Compound was evaluated for anti-methicillin-resistant activity against methicillin-resistant Staphylococcus aureus CL 3031
[16] = target: T1, Dipeptidase 1 (Sus scrofa) (UniProt P22412); experiment: DHP-I susceptibility relative to imipenem
T1 sequence (whole entry): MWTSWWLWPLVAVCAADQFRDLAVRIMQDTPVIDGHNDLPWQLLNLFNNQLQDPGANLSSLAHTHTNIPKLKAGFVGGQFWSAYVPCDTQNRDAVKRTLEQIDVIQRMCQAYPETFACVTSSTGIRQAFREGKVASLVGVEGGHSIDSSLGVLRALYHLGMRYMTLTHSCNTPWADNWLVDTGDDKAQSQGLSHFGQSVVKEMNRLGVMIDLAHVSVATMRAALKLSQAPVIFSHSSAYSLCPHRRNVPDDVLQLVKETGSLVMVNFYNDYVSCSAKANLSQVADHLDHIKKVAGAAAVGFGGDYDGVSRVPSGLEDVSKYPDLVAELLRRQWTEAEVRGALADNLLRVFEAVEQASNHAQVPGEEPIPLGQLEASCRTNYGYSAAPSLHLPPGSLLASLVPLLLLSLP

Pseudomonas aeruginosa [17] = experiment: Antibacterial activity against Pseudomonas aeruginosa (5 )
Staphylococcus aureus [18] = experiment: Compound was evaluated for anti-methicillin-resistant activity against methicillin-resistant Staphylococcus aureus CL 1983
Staphylococcus aureus [19] = experiment: Compound was evaluated for anti-methicillin-resistant activity against methicillin-resistant Staphylococcus aureus CL 1990
Klebsiella sp. [20] = experiment: Antibacterial activity against Klebsiella species. (5)
Staphylococcus aureus [21] = experiment: Compound was evaluated for anti-methicillin-resistant activity against methicillin-resistant Staphylococcus aureus CL 3033
Staphylococcus aureus [22] = experiment: Compound was evaluated for anti-methicillin-resistant activity against methicillin-resistant Staphylococcus aureus CL 1395
Staphylococcus aureus [23] = experiment: Compound was evaluated for anti-methicillin-resistant activity against methicillin-resistant Staphylococcus aureus CL 1989
Enterobacter sp. [24] = experiment: Antibacterial activity against Enterobacter species. (6)
Staphylococcus aureus [25] = experiment: Compound was evaluated for anti-methicillin-resistant activity against methicillin-resistant Staphylococcus aureus CL 3025
Escherichia coli [26] = experiment: Antibacterial activity against Escherichia coli (5)
Enterococcus sp. [27] = experiment: Antibacterial activity against Enterococcus species. (3)
Staphylococcus aureus [28] = experiment: Antibacterial activity against Methicillin-resistant Staphylococcus aureus (1)
Enterococcus sp. [29] = experiment: Relative potency was calculated against Enterococcus species. (3) by dividing the species index of Imipenem by the species index of the test compound
Serratia [30] = experiment: Relative potency was calculated against Serratia species. (2) by dividing the species index of Imipenem by the species index of the test compound
Klebsiella sp. [31] = experiment: Relative potency was calculated against Klebsiella species. (5) by dividing the species index of Imipenem by the species index of the test compound
Pseudomonas aeruginosa [32] = experiment: Relative potency was calculated against Pseudomonas aeruginosa (5 ) by dividing the species index of Imipenem by the species index of the test compound
Staphylococcus aureus [33] = experiment: Relative potency was calculated against Methicillin-resistant Staphylococcus aureus (1) by dividing the species index of Imipenem by the species index of the test compound
Escherichia coli [34] = experiment: Relative potency was calculated against Escherichia coli (5) by dividing the species index of Imipenem by the species index of the test compound
Enterobacter sp. [35] = experiment: Relative potency was calculated against Enterobacter species. (6) by dividing the species index of Imipenem by the species index of the test compound
Proteus [36] = experiment: Relative potency was calculated against Proteus species. (5) by dividing the species index of Imipenem by the species index of the test compound
Staphylococcus aureus [37] = experiment: Relative potency was calculated against Methicillin-sensitive Staphylococcus aureus (4) by dividing the species index of Imipenem by the species index of the test compound

## CN[C@H](CC(C)C)C(=O)N[C@H]1C(=O)N[C@@H](CC(N)=O)C(=O)N[C@H]2C(=O)N[C@H]3C(=O)N[C@H](C(=O)N[C@H](C(=O)O)c4cc(O)cc(O)c4-c4cc3ccc4O)[C@H](O)c3ccc(c(Cl)c3)Oc3cc2cc(c3O[C@@H]2O[C@H](CO)[C@@H](O)[C@H](O)[C@H]2O[C@H]2C[C@](C)(N)[C@H](O)[C@H](C)O2)Oc2ccc(cc2Cl)[C@H]1O [VANCOMYCIN]
Staphylococcus sp. [1]
  MIC: 8 µg/mL (≈ 5.52 µM)
Staphylococcus sp. [2]
  MIC50: 4 µg/mL (≈ 2.76 µM)
  MIC90: 8 µg/mL (≈ 5.52 µM)
Staphylococcus aureus [3]
  MIC50: 1 µg/mL (≈ 0.69 µM)
  MIC90: 2 µg/mL (≈ 1.38 µM)
Staphylococcus sp. [4]
  MIC: 4 µg/mL (≈ 2.76 µM)
Staphylococcus sp. [5]
  MIC: 8 µg/mL (≈ 5.52 µM)
Staphylococcus sp. [6]
  MIC: 2 µg/mL (≈ 1.38 µM)

## C[C@@H](O)[C@H]1C(=O)N2C(C(=O)O)=C(SCCNC=N)C[C@H]12 [IMIPENEM ANHYDROUS]
Staphylococcus aureus [7]
  MIC: 0.01 µg/mL (≈ 0.0334 µM)
Staphylococcus aureus [8]
  MIC: 1 µg/mL (≈ 3.34 µM)
Staphylococcus aureus [9]
  MIC: 32 µg/mL (≈ 107 µM)
Staphylococcus aureus [10]
  MIC: 32 µg/mL (≈ 107 µM)
Serratia [11]
  MIC: 0.29 µg/mL (≈ 0.969 µM)
Proteus [12]
  MIC: 0.78 µg/mL (≈ 2.61 µM)
Staphylococcus aureus [13]
  MIC: 16 µg/mL (≈ 53.4 µM)
Staphylococcus aureus [14]
  MIC: 1 µg/mL (≈ 3.34 µM)
Staphylococcus aureus [15]
  MIC: 32 µg/mL (≈ 107 µM)
[16]
  Susceptibility: 1
Staphylococcus sp. [1]
  MIC: > 128 µg/mL
Pseudomonas aeruginosa [17]
  MIC: 0.36 µg/mL (≈ 1.2 µM)
Staphylococcus aureus [18]
  MIC: 1 µg/mL (≈ 3.34 µM)
Staphylococcus aureus [19]
  MIC: 4 µg/mL (≈ 13.4 µM)
Staphylococcus sp. [2]
  MIC50: 64 µg/mL (≈ 214 µM)
  MIC90: > 128 µg/mL
Klebsiella sp. [20]
  MIC: 0.29 µg/mL (≈ 0.969 µM)
Staphylococcus aureus [21]
  MIC: 128 µg/mL (≈ 428 µM)
Staphylococcus aureus [3]
  MIC50: 4 µg/mL (≈ 13.4 µM)
  MIC90: 64 µg/mL (≈ 214 µM)
Staphylococcus aureus [22]
  MIC: 64 µg/mL (≈ 214 µM)
Staphylococcus aureus [23]
  MIC: 2 µg/mL (≈ 6.68 µM)
Enterobacter sp. [24]
  MIC: 0.18 µg/mL (≈ 0.601 µM)
Staphylococcus aureus [25]
  MIC: 2 µg/mL (≈ 6.68 µM)
Escherichia coli [26]
  MIC: 0.19 µg/mL (≈ 0.635 µM)
Staphylococcus sp. [4]
  MIC: 64 µg/mL (≈ 214 µM)
Staphylococcus sp. [5]
  MIC: > 128 µg/mL
Staphylococcus sp. [6]
  MIC: 64 µg/mL (≈ 214 µM)
Enterococcus sp. [27]
  MIC: 1.8 µg/mL (≈ 6.01 µM)
Staphylococcus aureus [28]
  MIC: 33 µg/mL (≈ 110 µM)

## C[C@@H](O)[C@H]1C(=O)N2C(C(=O)[O-])=C(c3cccc(C[n+]4ccccc4N)c3)C[C@H]12
Enterococcus sp. [29]
  Relative potency: 12.9
Serratia [30]
  Relative potency: 4.4
Klebsiella sp. [31]
  Relative potency: 1.1
Pseudomonas aeruginosa [32]
  Relative potency: 0.02
Staphylococcus aureus [33]
  Relative potency: 2
[16]
  Susceptibility: 0.11
Escherichia coli [34]
  Relative potency: 1.7
Enterobacter sp. [35]
  Relative potency: 3
Proteus [36]
  Relative potency: 4.2
Staphylococcus aureus [37]
  Relative potency: 0.5

## C[C@@H](O)[C@H]1C(=O)N2C(C(=O)[O-])=C(c3cccc(-c4ccc(C[n+]5ccccc5N)cc4)c3)C[C@H]12
Enterococcus sp. [29]
  Relative potency: 6.2
Staphylococcus aureus [8]
  MIC: 1 µg/mL (≈ 2.2 µM)
Staphylococcus aureus [9]
  MIC: 2 µg/mL (≈ 4.39 µM)
Serratia [30]
  Relative potency: 0.11
Klebsiella sp. [31]
  Relative potency: 0.04
Staphylococcus aureus [10]
  MIC: 1 µg/mL (≈ 2.2 µM)
Pseudomonas aeruginosa [32]
  Relative potency: 0.01
Staphylococcus aureus [33]
  Relative potency: 154
Staphylococcus aureus [13]
  MIC: 1 µg/mL (≈ 2.2 µM)
Staphylococcus aureus [14]
  MIC: 1 µg/mL (≈ 2.2 µM)
Staphylococcus aureus [15]
  MIC: 2 µg/mL (≈ 4.39 µM)
[16]
  Susceptibility: 0.04
Staphylococcus sp. [1]
  MIC: 4 µg/mL (≈ 8.78 µM)
Staphylococcus aureus [18]
  MIC: 0.5 µg/mL (≈ 1.1 µM)
Escherichia coli [34]
  Relative potency: 0.11
Staphylococcus aureus [19]
  MIC: 1 µg/mL (≈ 2.2 µM)
Staphylococcus sp. [2]
  MIC50: 2 µg/mL (≈ 4.39 µM)
  MIC90: 4 µg/mL (≈ 8.78 µM)
Staphylococcus aureus [21]
  MIC: 2 µg/mL (≈ 4.39 µM)
Staphylococcus aureus [3]
  MIC50: 1 µg/mL (≈ 2.2 µM)
  MIC90: 2 µg/mL (≈ 4.39 µM)
Enterobacter sp. [35]
  Relative potency: 0.04
Staphylococcus aureus [22]
  MIC: 2 µg/mL (≈ 4.39 µM)
Staphylococcus aureus [23]
  MIC: 0.5 µg/mL (≈ 1.1 µM)
Staphylococcus aureus [25]
  MIC: 1 µg/mL (≈ 2.2 µM)
Staphylococcus sp. [4]
  MIC: 2 µg/mL (≈ 4.39 µM)
Staphylococcus sp. [5]
  MIC: 2 µg/mL (≈ 4.39 µM)
Staphylococcus sp. [6]
  MIC: 2 µg/mL (≈ 4.39 µM)
Proteus [36]
  Relative potency: 0.38
Staphylococcus aureus [37]
  Relative potency: 0.43

## COc1cccc(OC)c1C(=O)N[C@@H]1C(=O)N2[C@@H]1SC(C)(C)[C@@H]2C(=O)[O-].[Na+]
Staphylococcus aureus [8]
  MIC: 64 µg/mL
Staphylococcus aureus [9]
  MIC: 512 µg/mL
Staphylococcus aureus [10]
  MIC: 512 µg/mL
Staphylococcus aureus [13]
  MIC: 128 µg/mL
Staphylococcus aureus [14]
  MIC: 64 µg/mL
Staphylococcus aureus [15]
  MIC: 256 µg/mL
Staphylococcus sp. [1]
  MIC: > 512 µg/mL
Staphylococcus aureus [18]
  MIC: 64 µg/mL
Staphylococcus aureus [19]
  MIC: 128 µg/mL
Staphylococcus sp. [2]
  MIC50: > 512 µg/mL
  MIC90: > 512 µg/mL
Staphylococcus aureus [21]
  MIC: > 512 µg/mL
Staphylococcus aureus [3]
  MIC50: 128 µg/mL
  MIC90: 512 µg/mL
Staphylococcus aureus [22]
  MIC: 512 µg/mL
Staphylococcus aureus [23]
  MIC: 64 µg/mL
Staphylococcus aureus [25]
  MIC: 64 µg/mL
Staphylococcus sp. [4]
  MIC: > 512 µg/mL
Staphylococcus sp. [5]
  MIC: > 512 µg/mL
Staphylococcus sp. [6]
  MIC: 512 µg/mL

## C[C@@H](O)[C@H]1C(=O)N2C(C(=O)[O-])=C(c3ccc(-c4ccc(C[n+]5ccc(N(C)C)cc5)cc4)cc3)C[C@H]12
Enterococcus sp. [29]
  Relative potency: 2
Serratia [30]
  Relative potency: 0.26
Klebsiella sp. [31]
  Relative potency: 0.04
Pseudomonas aeruginosa [32]
  Relative potency: 0.013
Staphylococcus aureus [33]
  Relative potency: 3.9
[16]
  Susceptibility: 0.46
Escherichia coli [34]
  Relative potency: 0.31
Enterobacter sp. [35]
  Relative potency: 0.12
Proteus [36]
  Relative potency: 0.44
Staphylococcus aureus [37]
  Relative potency: 0.16
